Test results published in patent publication US20080145313A1, “Compositions and Methods for the Treatment and Prevention of Neoplastic Disorders” (Genesis Research & Development Corporation Limited, priority 2006, published 2008).
Marks after values point to notes of the source that are not given here.

What was measured:
A549 cells = assay: Growth inhibition of siRNA-transfected A549 cells, SYBR Green I DNA content; type: cell-based, human; conditions: for Growth Inhibition in A549 cells by 10 nM siRNA: transporter gene targets; for growth inhibition, A549 cells: standardized against control siRNA
In short: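 Growth read-out: cellular DNA quantified with SYBR Green I (485/535 nm) 96 h after transfection, cells frozen, thawed and lysed in PBS/1% Triton X-100, pH 7. Cells (A549, 5×10^3 cells/cm^2) received 10 nM siRNA by RNAiMAX; non-specific siRNA served as control; triplicate wells averaged.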

YBX1 mRNA = YBX1 mRNA level by quantitative RT-PCR in A549 cells; type: cell-based, human; conditions: 24 h post-transfection
Procedure: A549 cells were transfected with 10 nM RRM1-1 (SEQ ID NO: 4830 (DNA), and SEQ ID NO: 5136 (RNA); light grey bar in FIG. 12A), RRM1-2 (SEQ ID NO: 4831 (DNA), and SEQ ID NO: 5137 (RNA); dark grey bar in FIG. 12A), RRM1-3 (SEQ ID NO: 4832 (DNA), and SEQ ID NO: 5138 (RNA); black bar in FIG. 12A) or control siRNA (SEQ ID NO: 4804 (DNA), and SEQ ID NO: 5301 (RNA)) (open bar in FIG. 12A) and relative mRNA levels quantified 24 h post-transfection. RNA was purified from cells using Trizol® extraction as per the manufacturer's protocol (Invitrogen). cDNA was prepared by digesting approximately 200 ng purified RNA with DNAse I (Invitrogen) for 15 minutes at room temperature, followed by 15 minutes at 65° C. in the presence of 25 mM EDTA. 30 ng random primers were added and incubated for 10 minutes at room temperature, 1 minute on ice; Superscript III polymerase (Invitrogen) was added in presence of 5 nM DTT (Sigma, St Louis, Mo.) and 1 mM deoxyribonucleotides (Invitrogen), and the reaction incubated at 25° C. for 5 minutes, followed by an hour at 55° C. cDNA was diluted 1:3 in 10 mM Tris pH 7.0, and quantitative RT-PCR carried out on an ABI Prism 7900HT (Applied Biosciences, Inc., Foster City, Calif.) using FastStart TaqMan SYBRGreen (Roche, Basel, Switzerland) and specific primers at 360 nM for RRM1 and RRM2 and the housekeeping genes HPRT and Lamin. Primer sequence pairs used for RRM1, RRM2, HPRT and lamin are given in SEQ ID NO: 4881 and 4882; 4883 and 4884; 4885 and 4886; 4887 and 4888 respectively.
A549 cells were transfected with 0.1, 1.0 and 10 nM siRNA (given in SEQ ID NO: 4981 to 4985 (DNA), and SEQ ID NO: 5276-5280 (RNA)) and the relative mRNA levels quantified 24 h post-transfection as described in Example 8.

[1] = 10 nM siRNA, DNA content 96 hours after transfection

SEQ ID NO: 4924: siRNA targeting SLC16A1 (MCT1) (chain 1 TTAGACTTATCTTTCCCTGCCTTGG; chain 2 UUAGACUUAUCUUUCCCUGCCUUGG; chemistry not given here; one strand in two spellings)
Growth Inhibition in A549 cells by 10 nM siRNA (A549 cells; [1]): ++ (inhibits by at least 75%)

SEQ ID NO: 4932: siRNA targeting SLC29A1 (ENT1) (chain 1 TGATAAAGTAGCCGAAGGCACTTTC; chain 2 UGAUAAAGUAGCCGAAGGCACUUUC; chemistry not given here; one strand in two spellings)
Growth Inhibition in A549 cells by 10 nM siRNA (A549 cells; [1]): − (no growth inhibition)

SEQ ID NO: 4982: siRNA targeting YBX1 (chain 1 TTTGCTGGTAATTGCGTGGAGGACC; chain 2 UUUGCUGGUAAUUGCGUGGAGGACC; chemistry not given here; one strand in two spellings)
growth inhibition, A549 cells (A549 cells; 10 nM siRNA): +++ (At least 70% inhibition)
YBX1-specific reduction of mRNA levels in A549 cells (YBX1 mRNA; 1 nM siRNA): +++ (At least 70% inhibition)
YBX1-specific reduction of mRNA levels in A549 cells (YBX1 mRNA; 10 nM siRNA): +++ (At least 70% inhibition)

SEQ ID NO: 4983: siRNA targeting YBX1 (chain 1 TACTGTGGTCGACGCCCATAGGGTC; chain 2 UACUGUGGUCGACGCCCAUAGGGUC; chemistry not given here; one strand in two spellings)
growth inhibition, A549 cells (A549 cells; 10 nM siRNA): + (At least 20% inhibition)
YBX1-specific reduction of mRNA levels in A549 cells (YBX1 mRNA; 10 nM siRNA): ++ (At least 50% inhibition)

SEQ ID NO: 4984: siRNA targeting YBX1 (chain 1 CAAGGTAGACCAGTGAGGCAGAATA; chain 2 CAAGGUAGACCAGUGAGGCAGAAUA; chemistry not given here; one strand in two spellings)
growth inhibition, A549 cells (A549 cells; 5 nM siRNA): ++** (At least 50% inhibition)
YBX1-specific reduction of mRNA levels in A549 cells (YBX1 mRNA; 0.1 nM siRNA): +++ (At least 70% inhibition)
YBX1-specific reduction of mRNA levels in A549 cells (YBX1 mRNA; 1 nM siRNA): +++ (At least 70% inhibition)
YBX1-specific reduction of mRNA levels in A549 cells (YBX1 mRNA; 10 nM siRNA): +++ (At least 70% inhibition)

SEQ ID NO: 4985: siRNA targeting YBX1 (chain 1 CAGCCTAGAGAGGACGGCAATGAAG; chain 2 CAGCCUAGAGAGGACGGCAAUGAAG; chemistry not given here; one strand in two spellings)
growth inhibition, A549 cells (A549 cells; 5 nM siRNA): +** (At least 20% inhibition)
YBX1-specific reduction of mRNA levels in A549 cells (YBX1 mRNA; 0.1 nM siRNA): + (At least 20% inhibition)
YBX1-specific reduction of mRNA levels in A549 cells (YBX1 mRNA; 1 nM siRNA): ++ (At least 50% inhibition)
YBX1-specific reduction of mRNA levels in A549 cells (YBX1 mRNA; 10 nM siRNA): ++ (At least 50% inhibition)

SEQ ID NO: 5307: Stealth siRNA targeting RRM2 (chain 1 AATTCATCCCAATGAGCTTCACAGG; chain 2 AAUUCAUCCCAAUGAGCUUCACAGG; Stealth siRNA, chemical pattern not given here; one strand in two spellings)
Growth Inhibition in A549 cells (A549 cells; [1]): ++ (inhibits by at least 75%)
